Like-named read-outs stand apart in the source and are kept apart here. Blank lines part the entries; values can stand above or below the compound they belong to.
What was measured:
[1] = tested on: Hep G2 (ATCC HB-8065) cells; assay: Cytotoxicity, MTT assay; assay type: cell-based; conditions: Homo sapiens, HepG2, 24 h
Description: (§1) Before removing the frozen cell stocks from liquid nitrogen, culture medium was pre-warmed to 37° C. The frozen tube was then removed from liquid nitrogen and placed into a 37° C. water bath and shaken gently to thaw the cell stock as quickly as possible. A small portion of the pre-warmed culture medium was added to the cell solution. The cell suspension was then centrifuged at 1000 r/min for 3 minutes. The supernatant was discarded and the cells were resuspended in fresh culture medium.
(§2) NIH 3T3 (ATCC CRL-1658) and Hep G2 (ATCC HB-8065) cells were cultured with DMEM+10% FBS in 100 mm dishes. Cells were lifted for subculture or testing when confluence reached ˜60% by treating with 1× trypsin (incubated for 3 min at 37° C.). J774 (ATCC TIB-67) cells were cultured with DMEM+10% FBS in 100 mm dishes. Cells were lifted for subculture or testing when confluence reached ˜80% using a cell scraper. RAW264.7 (ATCC TIB-71) cells were cultured with DMEM+10% heat-inactivated FBS+1% pen/strep in T75 flasks. Cells were lifted for subculture or testing when confluence reached ˜80% using a cell scraper.
(§3) • 1. Cells were lifted and resuspended in culture medium. The number of cells in the cell suspension was determined using an auto-cell counter: 10 μL of the cell suspension was mixed with 10 μL 1× trypan blue (filtered with 0.2 μm PES filter) and the mixture was loaded onto a cell counting slide. Based on the concentration of viable cells, the cell suspension was further diluted to achieve the desired density. • 2. Cells were seeded in 96 well plates by adding 100 μL final cell suspension column-by-column using a multichannel pipette (5000 cells/well for NIH 3T3, 10000 cells/well for Hep G2, J774 and RAW264.7). The outer wells were block with PBS to reduce the effects of evaporation. One column was filled with only culture medium as a blank. Cells were incubated overnight before adding the test articles. • 3. Test articles were dissolved in 1×PBS (or DMSO) to obtain stocks solution. Stock solutions were pre-warmed before use. […] Serial dilutions (2-fold) of the 10× solutions were made in sterile culture tubes by diluting in 1×PBS (8 dilutions to yield 9 test concentrations). 900 μL of culture media was added to each tube to obtain final drug solution containing 10% PBS (or less than 1% DMSO) for each experimental group. • 4. The original culture medium was gently removed from the 96-well plates using a pipette. 100 μL of the test article solutions prepared in Step 3 were added to rows 2-7 of each column to obtain six replicates for each concentration. Plates were then incubated for 24 hours. • 5. MTT solutions were prepared by dissolving commercial MTT powder in 1×PBS to a concentration of 5 mg/mL. After passing through a 0.22 μm PES filter, the MTT solution was divided into 1 mL portions in sterile centrifuge tubes and stored at −20° C. • 6. MTT stock solutions were removed from the freezer to thaw at room temperature. Before adding MTT solutions, cell cultures were visually inspected and imaged using a microscope (to use as a comparison with MTT results). 10 μL of the 5 mg/mL MTT solution was added to each well and the plate was incubated for 4 hours. • 7. After 4 h incubation, the culture medium/MT solution was removed gently using a pipette. 100 μL of DMSO was added to each well using a multichannel pipette. The 96-well plates were analyzed in a plate reader using the following method: shake for 5 minutes, wait for 30 seconds, and measure absorbance at 570 nm. • 8. Data processing: The average of background Abg was calculated from the blank column. All other data was first treated by subtracting Abg. The average A. and standard deviation Se of each experimental group and the average Ac and standard deviation Sc for control group (with pure culture medium incubation) were then calculated. The cell viability was determined as Ae/Ac×100% and corresponding error as Se/Ae×100%. Significant outliers in any experimental or control group were removed. […]

Cytotoxicity, MTT assay = assay type: cell-based; conditions: human, Hep G2, at the concentration given as IC50 bound, read-out: cell viability at the highest or lowest test concentration
Description: as §1, §2, §3

[2] = tested on: S. epidermidis (ATCC 14990); assay: MIC broth microdilution method, Table 3; conditions: Staphylococcus epidermidis, ATCC14990
E. coli K12 (ATCC 47076) = assay: MIC broth microdilution method, Table 3; conditions: Escherichia coli, ATCC47076
[3] = tested on: NIH 3T3 (ATCC CRL-1658) cells; assay: Cytotoxicity, MTT assay; assay type: cell-based; conditions: Mus musculus
Description: as §1, §2, §3

[4] = tested on: S. aureus ATCC BAA-1717 (MRSA); assay: MIC against resistant strains, Tables 5a-5d; assay type: cell-based; conditions: Staphylococcus aureus, n = 3
Description: (§4) Compounds described herein were evaluated for growth inhibition against a variety of bacterial species, including strains that have developed resistance to common antibacterial treatments, according to the procedure described herein, or by analogous procedures known to those skilled in the art. Resistant bacterial strains used for compound testing include methicillin-resistant S. aureus (MRSA), vancomycin resistant Enterococci (VRE) and various multi-drug resistant (MDR) strains commonly associated with hospital-acquired (nosocomial) infections, including, but not limited to A. baumannii, K. pnuemoniae, and E. cloacae.

E. faecium 1674620 (VRE) = assay: MIC against resistant strains, Tables 5a-5d; assay type: cell-based; conditions: Enterococcus faecium, n = 3
Description: as §4

[5] = tested on: A. baumannii 1674627 (MDR); assay: MIC against resistant strains, Tables 5a-5d; assay type: cell-based; conditions: Acinetobacter baumannii, n = 3
Description: as §4

[6] = tested on: S. aureus ATCC 33591 (MRSA); assay: MIC against resistant strains, Tables 5a-5d; assay type: cell-based; conditions: Staphylococcus aureus, n = 3
Description: as §4

[7] = tested on: P. aeruginosa 1674623 (MDR); assay: MIC against resistant strains, Tables 5a-5d; assay type: cell-based; conditions: Pseudomonas aeruginosa, n = 3
Description: as §4

[8] = tested on: E. cloacae 1744299 (ESBL); assay: MIC against resistant strains, Tables 5a-5d; assay type: cell-based; conditions: Enterobacter cloacae, n = 3
Description: as §4

[9] = tested on: K. pneumoniae CDC0010 (MDR); assay: MIC against resistant strains, Tables 5a-5d; assay type: cell-based; conditions: Klebsiella pneumoniae, n = 3
Description: as §4

[10] = tested on: A. baumannii CDC0290 (MDR); assay: MIC against resistant strains, Tables 5a-5d; assay type: cell-based; conditions: Acinetobacter baumannii, n = 3
Description: as §4

E. coli ATCC25922 (WT) = assay: MIC against resistant strains, Tables 5a-5d; assay type: cell-based; conditions: Escherichia coli, n = 3
Description: as §4

[11] = tested on: P. aeruginosa CDC0248 (MDR); assay: MIC against resistant strains, Tables 5a-5d; assay type: cell-based; conditions: Pseudomonas aeruginosa, n = 3
Description: as §4

[12] = tested on: K. pneumoniae ATCC BAA-2473 (MDR); assay: MIC against resistant strains, Tables 5a-5d; assay type: cell-based; conditions: Klebsiella pneumoniae, ATCCBAA2473, n = 3
Description: as §4

[13] = Hep G2, MTT, 24 hours incubation, read-out: IC50

Structure (SMILES): C[N+](C)(C)CCCCCCOc1cc(/C=C/c2cc(OCCCCCC[N+](C)(C)C)cc(OCCCCCC[N+](C)(C)C)c2)cc(OCCCCCC[N+](C)(C)C)c1 [Formula A]
- IC50 [1]: > 128 µg/mL
- viability at 24 h (Cytotoxicity, MTT assay): 68%

Structure (SMILES): C[N+](C)(C)CCCCCCCCOc1cc(/C=C/c2cc(OCCCCCCCC[N+](C)(C)C)cc(OCCCCCCC[N+](C)(C)C)c2)cc(OCCCCCCC[N+](C)(C)C)c1.[I-].[I-].[I-].[I-] [Formula B]
- IC50 [1]: 9.9 µg/mL

Structure (SMILES): C(=C\c1cc(OCCCCCC[n+]2ccccc2)cc(OCCCCCC[n+]2ccccc2)c1)/c1cc(OCCCCCC[n+]2ccccc2)cc(OCCCCCC[n+]2ccccc2)c1.[I-].[I-].[I-].[I-] [Formula C]
- IC50 [1]: 29.7 µg/mL

Structure (SMILES): CCCC[N+](C)(CCCCOc1cc(/C=C/c2ccc(/C=C/c3cc(OCCCC[N+](C)(CCCC)CCOCCOC)cc(OCCCC[N+](C)(CCCC)CCOCCOC)c3)cc2)cc(OCCCC[N+](C)(CCCC)CCOCCOC)c1)CCOCCOC (centres unmarked) [Formula GG]
- MIC (E. coli K12 (ATCC 47076)): 32 µg/mL
- IC50 ([3]; NIH3T3, NIH 3T3, MTT, 24 hours incubation, read-out: IC50): 77.8 µg/mL

Structure (SMILES): CCCCCC[N+](C)(CCCCOc1cc(/C=C/c2ccc(/C=C/c3cc(OCCCC[N+](C)(CCCCCC)CCOCCOCCOC)cc(OCCCC[N+](C)(CCCCCC)CCOCCOCCOC)c3)cc2)cc(OCCCC[N+](C)(CCCCCC)CCOCCOCCOC)c1)CCOCCOCCOC (centres unmarked) [Formula KK]
- MIC (E. coli K12 (ATCC 47076)): 16 µg/mL

Structure (SMILES): C[N+]1(CCCCCCOc2cc(/C=C/c3cc(OCCCCCC[N+]4(C)CCCCC4)cc(OCCCCCC[N+]4(C)CCCCC4)c3)cc(OCCCCCC[N+]3(C)CCCCC3)c2)CCCCC1.[I-].[I-].[I-].[I-] [Formula N]
- MIC [2]: 2 µg/mL
- MIC (E. coli K12 (ATCC 47076)): 128 µg/mL
- IC50 ([3]; NIH3T3, 24 h): 124 µg/mL

Continued, in another order:

- MIC [2]: 16 µg/mL
- MIC (E. coli K12 (ATCC 47076)): 64 µg/mL
Structure (SMILES): C[N+]12CC[N+](CCCOc3cc(/C=C/c4ccc(/C=C/c5cc(OCCC[N+]67CC[N+](C)(CC6)CC7)cc(OCCC[N+]67CC[N+](C)(CC6)CC7)c5)cc4)cc(OCCC[N+]45CC[N+](C)(CC4)CC5)c3)(CC1)CC2 [Formula DD]
- IC50 [1, 13]: > 128 µg/mL
- viability at 24 h (Cytotoxicity, MTT assay; Hep G2 (ATCC HB-8065) cells): 85%

- MIC [4]: 2 µg/mL
- MIC (E. faecium 1674620 (VRE)): 1 µg/mL
- MIC [5]: 32 µg/mL
- MIC [6]: 1 µg/mL
- MIC [7]: 64 µg/mL
- MIC [8]: 4 µg/mL
- MIC [9]: 16 µg/mL
- MIC [10]: 32 µg/mL
- MIC (E. coli ATCC25922 (WT)): 1 µg/mL
- MIC [11]: 64 µg/mL
- MIC [12]: 4 µg/mL
- MIC (E. coli K12 (ATCC 47076)): 4 µg/mL
Structure (SMILES): CCCC[N+](C)(C)CCOc1cc(/C=C/c2ccc(/C=C/c3cc(OCC[N+](C)(C)CCCC)cc(OCC[N+](C)(C)CCCC)c3)cc2)cc(OCC[N+](C)(C)CCCC)c1.[I-].[I-].[I-].[I-] [Formula G]
- IC50 [1, 13]: 889 µg/mL

- MIC (E. coli K12 (ATCC 47076)): 4 µg/mL
Structure (SMILES): CCCCCC[N+](C)(C)CCOc1cc(/C=C/c2ccc(/C=C/c3cc(OCC[N+](C)(C)CCCCCC)cc(OCC[N+](C)(C)CCCCCC)c3)cc2)cc(OCC[N+](C)(C)CCCCCC)c1.[I-].[I-].[I-].[I-] [Formula H]
- IC50 [1, 13]: 13 µg/mL

From patent US11713318B2, “Short conjugated oligoelectrolytes and uses thereof” (The Regents Of The University Of California, priority 2018, dated 2023)
